Reference: patent US9302999B2, “Substituted triazoles as herbicides” (E. I. DU PONT DE NEMOURS AND COMPANY, priority 2012, dated 2016)
Like-named read-outs stand apart in the source and are kept apart here.

Legend:
Format in all cases: in vivo
rice (Oryza sativa) = assay: Test C flooded paddy test: rice; conditions: scale 0 to 100 (0 no effect, 100 complete control); for plant injury at 62 g/ha / plant injury at 250 g/ha / plant injury at 125 g/ha: Oryza sativa, read-out: Plant response rating, Rice
Procedure, shortened: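 Greenhouse plants treated at the 2-leaf stage by dosing the flood water (3 cm depth, maintained) were compared with controls after 13 to 15 days and rated 0 to 100, where 100 means complete control; a dash marks no test result.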

[1] = system: galium (catchweed bedstraw, Galium aparine); assay: Test D pre-/postemergence: galium
Description: (§1) Seeds of plant species selected from bluegrass (annual bluegrass, Poa annua), blackgrass (Alopecurus myosuroides), canarygrass (Phalaris minor), chickweed (common chickweed, Stellaria media), galium (catchweed bedstraw, Galium aparine), bromegrass, downy (downy bromegrass, Bromus tectorum), field poppy (Papaver rhoeas), field violet (Viola arvensis), foxtail, green (green foxtail, Setaria viridis), deadnettle (henbit deadnettle, Lamium amplexicaule), ryegrass, Italian (Italian ryegrass, Lolium multiflorum), kochia (Kochia scoparia), lambsquarters (Chenopodium album), oilseed rape (Brassica napus), pigweed (Amaranthus retroflexus), Russian thistle (Salsola iberica), chamomile (scentless chamomile, Matricaria inodora), speedwell (bird's-eye speedwell, Veronica persica), barley, spring (spring barley, Hordeum vulgare), wheat, spring (spring wheat, Triticum aestivum), buckwheat, wild (wild buckwheat, Polygonum convolvulus), mustard, wild (wild mustard, Sinapis arvensis), oat, wild (wild oat, Avena fatua), radish, wild (wild radish, Raphanus raphanistrum), windgrass (Apera spica-venti), barley, winter (winter barley, Hordeum vulgare), and wheat, winter (winter wheat, Triticum aestivum) were planted into a silt loam soil and treated preemergence with test chemicals formulated in a non-phytotoxic solvent mixture which included a surfactant. At the same time, these same crop and weed species were planted in pots containing the planting medium comprising spaghnum peat moss, vermiculite, wetting agent and starter nutrients and treated with postemergence applications of the test chemicals formulated in the same manner. Plants ranged in height from 2 to 18 cm (1- to 4-leaf stage).
(§2) Treated plants and controls were maintained in a controlled growth environment for 14 to 21 days after which time all species were compared to controls and visually evaluated. Plant response ratings, summarized in Table D, are based on a scale of 0 to 100 where 0 is no effect and 100 is complete control. A dash (-) response means no test result.

[2] = system: bluegrass (annual bluegrass, Poa annua); assay: Test D pre-/postemergence: bluegrass
Description: as §1, §2

[3] = system: Russian thistle (Salsola iberica); assay: Test D pre-/postemergence: Russian thistle
Description: as §1, §2

[4] = Flood (flooded paddy test), 62 g ai/ha, visual rating after 13 to 15 days
[5] = Flood (flooded paddy test), 250 g ai/ha, visual rating after 13 to 15 days
[6] = Postemergence, 31 g ai/ha, scale 0 to 100 (0 no effect, 100 complete control)
[7] = Postemergence, 62 g ai/ha, scale 0 to 100 (0 no effect, 100 complete control)
[8] = Postemergence, 125 g ai/ha, scale 0 to 100, 0 no effect, 100 complete control
[9] = Postemergence, 250 g ai/ha, scale 0 to 100 (0 no effect, 100 complete control)
[10] = Preemergence, 62 g ai/ha, scale 0 to 100
[11] = Preemergence, 125 g ai/ha, scale 0 to 100
[12] = Preemergence, 250 g ai/ha, scale 0 to 100
[13] = Preemergence, 31 g ai/ha, scale 0 to 100, 0 no effect, 100 complete control
[14] = Postemergence, 16 g ai/ha, scale 0 to 100
[15] = Flood (flooded paddy test), 125 g ai/ha, visual rating after 13 to 15 days

Cc1nn(-c2ccc(C(F)(F)F)cc2)nc1Oc1csc(C(F)(F)F)c1 [Compound 1, 4-methyl-2-[4-(trifluoromethyl)phenyl]-5-[[5-(trifluoromethyl)-3-thienyl]oxy]-2H-1,2,3-triazole]
plant injury at 62 g/ha (rice (Oryza sativa); [4]): 0%
plant injury at 250 g/ha (rice (Oryza sativa); [5]): 0%

FC(F)(F)COc1nn(-c2ccc(C(F)(F)F)cc2)nc1Cc1ccnc(C(F)(F)F)c1 [Compound 14, 4-[[5-(2,2,2-trifluoroethoxy)-2-[4-(trifluoromethyl)phenyl]-2H-1,2,3-triazol-4-yl]methyl]-2-(trifluoromethyl)pyridine]
plant injury at 62 g/ha (rice (Oryza sativa); [4]): 40%
plant injury at 250 g/ha (rice (Oryza sativa); [5]): 45%
Plant response rating: Galium [1, 6]: 45
Plant response rating: Galium [1, 7]: 55
Plant response rating: Galium [1, 8]: 55
Plant response rating: Galium [1, 9]: 70
Plant response rating, Galium [1, 10]: 0
Plant response rating, Galium [1, 11]: 100
Plant response rating, Galium [1, 12]: 100
Plant response rating: Bluegrass [2, 6]: 20
Plant response rating: Bluegrass [2, 7]: 35
Plant response rating: Bluegrass [2, 8]: 70
Plant response rating: Bluegrass [2, 9]: 95
Plant response rating, Bluegrass [2, 13]: 0
Plant response rating, Bluegrass [2, 10]: 30
Plant response rating, Bluegrass [2, 11]: 85
Plant response rating, Bluegrass [2, 12]: 100
Plant response rating: Russian Thistle [3, 6]: 0
Plant response rating: Russian Thistle [3, 7]: 75
Plant response rating: Russian Thistle [3, 8]: 100
Plant response rating: Russian Thistle [3, 9]: 100
Plant response rating, Russian Thistle [3, 13]: 0
Plant response rating, Russian Thistle [3, 10]: 0
Plant response rating, Russian Thistle [3, 11]: 10
Plant response rating, Russian Thistle [3, 12]: 40

COc1nn(-c2ccc(C(F)(F)F)cc2)nc1Cc1ccnc(C(F)(F)F)c1 [Compound 15, 4-[[5-methoxy-2-[4-(trifluoromethyl)phenyl]-2H-1,2,3-triazol-4-yl]methyl]-2-(trifluoromethyl)pyridine]
plant injury at 62 g/ha (rice (Oryza sativa); [4]): 45%
plant injury at 250 g/ha (rice (Oryza sativa); [5]): 50%
Plant response rating: Galium [1, 6]: 55
Plant response rating: Galium [1, 7]: 70
Plant response rating: Galium [1, 8]: 100
Plant response rating: Galium [1, 9]: 100
Plant response rating, Galium [1, 14]: 50
Plant response rating, Galium [1, 10]: 30
Plant response rating, Galium [1, 11]: 100
Plant response rating, Galium [1, 12]: 100
Plant response rating: Bluegrass [2, 6]: 10
Plant response rating: Bluegrass [2, 7]: 25
Plant response rating: Bluegrass [2, 8]: 50
Plant response rating: Bluegrass [2, 9]: 95
Plant response rating, Bluegrass [2, 14]: 0
Plant response rating, Bluegrass [2, 13]: 0
Plant response rating, Bluegrass [2, 10]: 5
Plant response rating, Bluegrass [2, 11]: 80
Plant response rating, Bluegrass [2, 12]: 100
Plant response rating: Russian Thistle [3, 6]: 100
Plant response rating: Russian Thistle [3, 7]: 100
Plant response rating: Russian Thistle [3, 8]: 100
Plant response rating: Russian Thistle [3, 9]: 100
Plant response rating, Russian Thistle [3, 14]: 60
Plant response rating, Russian Thistle [3, 13]: 0
Plant response rating, Russian Thistle [3, 10]: 0
Plant response rating, Russian Thistle [3, 11]: 80
Plant response rating, Russian Thistle [3, 12]: 80

Cc1nn(-c2ccc(C(F)(F)F)cn2)nc1Oc1ccnc(C(F)(F)F)c1 [Compound 23]
Plant response rating, Rice (rice (Oryza sativa); [4]): 0
Plant response rating, Rice (rice (Oryza sativa); [15]): 0
Plant response rating, Rice (rice (Oryza sativa); [5]): 30
Plant response rating, Rice (rice (Oryza sativa); Flood, 31 g ai/ha): 0
Plant response rating: Galium [1, 6]: 30
Plant response rating: Galium [1, 7]: 50
Plant response rating: Galium [1, 8]: 70
Plant response rating: Galium [1, 9]: 90
Plant response rating, Galium [1, 14]: 25
Plant response rating: Bluegrass [2, 6]: 20
Plant response rating: Bluegrass [2, 7]: 25
Plant response rating: Bluegrass [2, 8]: 30
Plant response rating: Bluegrass [2, 9]: 40
Plant response rating, Bluegrass [2, 14]: 20
Plant response rating: Russian Thistle [3, 6]: 50
Plant response rating: Russian Thistle [3, 7]: 70
Plant response rating: Russian Thistle [3, 8]: 90
Plant response rating: Russian Thistle [3, 9]: 100
Plant response rating, Russian Thistle [3, 14]: 50

Cc1nn(-c2ccc(C(F)(F)F)cn2)nc1Cc1cccc(C(F)(F)F)c1 [Compound 106]
Plant response rating, Rice (rice (Oryza sativa); [15]): 25
Plant response rating, Rice (rice (Oryza sativa); [5]): 30
Plant response rating, Rice (rice (Oryza sativa); Flood, 31 g ai/ha): 0
Plant response rating, Rice (rice (Oryza sativa); Flood, 62 g ai/ha): 0
Plant response rating: Galium [1, 6]: 40
Plant response rating: Galium [1, 7]: 40
Plant response rating: Galium [1, 8]: 40
Plant response rating: Galium [1, 9]: 60
Plant response rating, Galium [1, 14]: 20
Plant response rating, Galium [1, 13]: 0
Plant response rating, Galium [1, 10]: 0
Plant response rating, Galium [1, 11]: 40
Plant response rating, Galium [1, 12]: 80
Plant response rating: Bluegrass [2, 6]: 10
Plant response rating: Bluegrass [2, 7]: 10
Plant response rating: Bluegrass [2, 8]: 15
Plant response rating: Bluegrass [2, 9]: 30
Plant response rating, Bluegrass [2, 14]: 10
Plant response rating, Bluegrass [2, 10]: 0
Plant response rating, Bluegrass [2, 11]: 0
Plant response rating, Bluegrass [2, 12]: 0
Plant response rating: Russian Thistle [3, 6]: 25
Plant response rating: Russian Thistle [3, 7]: 30
Plant response rating: Russian Thistle [3, 8]: 60
Plant response rating: Russian Thistle [3, 9]: 100
Plant response rating, Russian Thistle [3, 14]: 20
Plant response rating, Russian Thistle [3, 13]: 0
Plant response rating, Russian Thistle [3, 10]: 0
Plant response rating, Russian Thistle [3, 11]: 0
Plant response rating, Russian Thistle [3, 12]: 0

COCc1nn(-c2ccc(C(F)(F)F)cc2)nc1Oc1cccc(OC(F)(F)F)c1 [Compound 115, 4-(methoxymethyl)-5-[3-(trifluoromethoxy)phenoxy]-2-[4-(trifluoromethyl)phenyl]-2H-1,2,3-triazole]
plant injury at 125 g/ha (rice (Oryza sativa); [15]): 30%
plant injury at 250 g/ha (rice (Oryza sativa); [5]): 40%
plant injury at 62 g/ha (rice (Oryza sativa); Flood, 62 g ai/ha): 20%

FCc1nn(-c2ccc(C(F)(F)F)cc2)nc1Oc1cccc(OC(F)(F)F)c1 [Compound 116, 4-(fluoromethyl)-5-[3-(trifluoromethoxy)phenoxy]-2-[4-(trifluoromethyl)phenyl]-2H-1,2,3-triazole]
plant injury at 125 g/ha (rice (Oryza sativa); [15]): 20%
plant injury at 250 g/ha (rice (Oryza sativa); [5]): 30%
plant injury at 62 g/ha (rice (Oryza sativa); Flood, 62 g ai/ha): 0%

COc1nn(-c2ccc(C(F)(F)F)cc2)nc1Cc1ccnc(C(F)F)c1 [Compound 138]
Plant response rating: Galium [1, 6]: 75
Plant response rating: Galium [1, 7]: 80
Plant response rating: Galium [1, 8]: 90
Plant response rating: Galium [1, 9]: 100
Plant response rating, Galium [1, 14]: 60
Plant response rating: Bluegrass [2, 6]: 30
Plant response rating: Bluegrass [2, 7]: 50
Plant response rating: Bluegrass [2, 8]: 70
Plant response rating: Bluegrass [2, 9]: 85
Plant response rating, Bluegrass [2, 14]: 20
Plant response rating: Russian Thistle [3, 6]: 75
Plant response rating: Russian Thistle [3, 7]: 90
Plant response rating: Russian Thistle [3, 8]: 95
Plant response rating: Russian Thistle [3, 9]: 100
Plant response rating, Russian Thistle [3, 14]: 50

Cc1nn(-c2ccc(F)c(C(F)(F)F)c2)nc1Cc1ccnc(C(F)(F)F)c1 [Compound 156]
Plant response rating: Galium [1, 6]: 75
Plant response rating: Galium [1, 7]: 75
Plant response rating: Galium [1, 8]: 80
Plant response rating, Galium [1, 14]: 70
Plant response rating: Bluegrass [2, 6]: 65
Plant response rating: Bluegrass [2, 7]: 70
Plant response rating: Bluegrass [2, 8]: 80
Plant response rating, Bluegrass [2, 14]: 15
Plant response rating, Bluegrass ([2]; Preemergence, 16 g ai/ha, scale 0 to 100, 0 no effect, 100 complete control): 5
Plant response rating, Bluegrass [2, 13]: 5
Plant response rating, Bluegrass [2, 10]: 40
Plant response rating, Bluegrass [2, 11]: 100
Plant response rating: Russian Thistle [3, 6]: 85
Plant response rating: Russian Thistle [3, 7]: 90
Plant response rating: Russian Thistle [3, 8]: 80
Plant response rating, Russian Thistle [3, 14]: 60
